According to publication PMC6895180 (Nature Communications, 2019):
Values joined by “and” are separate entries in the source; they are usually repeats but may differ in a detail not shown here. Identical values can stand only once. Like-named read-outs stand apart in the source and are kept apart here. Marks after values point to notes of the source that are not given here.

Legend:
[1] = test system: TbAT1-KO: T. brucei cell line lacking the TbAT1(P2) transporter gene; assay: microbe, parasite or virus in culture; type: cell-based, Trypanosoma brucei brucei; settings: for RF (TbAT1-KO): resistance factor: ratio of EC50 of resistant and Lister 427WT
Outline: (§1)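 Trypanosomes (2 × 10^4 cells/well) exposed 48 h at 37 °C/5% CO2 in HMI-9/FBS to 23-step doubling dilutions from 100 µM, then resazurin added for a further 24 h. Fluorescence fitted to a variable-slope sigmoid curve.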

[2] = test system: ISMR1: isometamidium-resistant T. brucei cell line; assay: microbe, parasite or virus in culture; type: cell-based, Trypanosoma brucei brucei; settings: for RF (ISMR1): resistance factor vs Lister 427WT
Outline: as §1

P2 transporter (TbAT1) = P2 transporter (TbAT1) (Trypanosoma brucei brucei, UniProt Q9Y0I0); assay: cell-based; settings: for P2 transporter ΔG^0: Gibbs free energy from −RT ln(Ki); for IC50: P2 transporter IC50, single experiments, [L] 0.033 or 0.1 per experiment; for Ki: P2 transporter Ki; for P2 transporter δ(ΔG^0): in comparison to adenosine
P2 transporter (TbAT1), sequence (Q9Y0I0 entry or part of it): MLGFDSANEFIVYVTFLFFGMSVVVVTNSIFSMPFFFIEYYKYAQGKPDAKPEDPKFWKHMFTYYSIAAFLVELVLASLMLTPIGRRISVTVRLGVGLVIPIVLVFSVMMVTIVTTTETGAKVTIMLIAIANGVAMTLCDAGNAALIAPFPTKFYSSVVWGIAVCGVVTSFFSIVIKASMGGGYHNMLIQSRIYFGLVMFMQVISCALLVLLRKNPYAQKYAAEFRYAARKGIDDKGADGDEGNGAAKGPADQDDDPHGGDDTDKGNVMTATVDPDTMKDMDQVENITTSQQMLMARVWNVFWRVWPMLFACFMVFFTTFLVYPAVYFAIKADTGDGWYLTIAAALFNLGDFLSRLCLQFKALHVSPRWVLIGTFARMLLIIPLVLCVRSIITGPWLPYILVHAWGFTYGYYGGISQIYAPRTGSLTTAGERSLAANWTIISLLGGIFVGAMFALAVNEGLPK
Protocol: (§2) Non-specific association of radiolabel with the cell pellet was determined using an identical incubation in the presence of saturating (1 mM) unlabelled adenosine.

[3] = test system: T. b. rhodesiense STIB-900; assay: microbe, parasite or virus in culture; type: cell-based, Trypanosoma brucei rhodesiense; settings: for SI (MRC/T.b. rhodesiense): selectivity index
[4] = test system: T. brucei s427 wildtype cells; assay: Microscopy of trypanosome cell morphology (DAPI); type: cell-based, Trypanosoma brucei; settings: 2× and 5× EC50; 6 h and especially 12 h
Protocol: Growth assays of T. brucei
To test the effect of the novel adenosine analogues on the growth of T. brucei BSF, s427 wildtype cells were seeded at 1×10^5 cells mL-1 in 5 mL of HMI-9 medium with 10% FBS and treated with compounds […]
cells were also incubated in drug-free medium under the same conditions. 2 μM of 2’-deoxycoformycin were added to all cultures to avoid any potential effect of serum adenosine deaminase on the activity of test compounds and cordycepin.1
Cells were manually counted in Neubauer chambers at 0, 2, 4, 6, 8, 12, 24, 36 and 48 h after addition of the drugs. At 6 and 12 h, cells were also collected and fixed to have their structure checked by […]
Wash-out experiments with T. brucei
A culture of bloodstream form T. brucei 427WT, at mid-log phase of growth, was harvested and resuspended at a density of 10^5 cells mL-1, in fresh medium containing either no test compound, or […]
The cultures were incubated under standard conditions (37 °C/5% CO2) and cell counts were performed manually using a haemocytometer under phase contrast microscopy, every 24 h. The culture in continuous presence of analogue 9 was split in two at 8 h and 48 h (as indicated with arrows in Supplementary Figure S2). The split cultures were centrifuged and resuspended in the same volume of either fresh medium without test compound or fresh medium with the same concentration of compound 9 as before, reincubated. The detection limit for the manual cell count was 10^4 cells mL-1.
After 6 and 12 h after addition of drugs, approximately 2×10^6 cells were harvested from each group and applied to glass slides pre-treated with poly-L-lysine, left to settle for 5 min and fixed with 4% formaldehyde for 4 min. The formaldehyde was neutralised by addition of 100 mM glycine (20 min).
Cells were washed once with PBS and blocked for 1 h with 1% BSA/0.2% Tween-20 in PBS. Cells were […]
A coverslip was then placed on top of the wells and sealed with nail varnish.
Metabolic stability of nucleoside analogue 9 […]
and B (Corning) were kept at -20°C. The test compound and the reference compounds diclofenac (MW […]

P1 transporter = type: cell-based, Trypanosoma brucei
Protocol: as §2

[5] = test system: T. b. brucei Lister 427WT; assay: Drug susceptibility test (resazurin), Lister 427WT; type: cell-based, Trypanosoma brucei brucei
Outline: as §1

[6] = test system: B48: pentamidine, diminazene and melaminophenyl arsenical resistant T. brucei line; assay: microbe, parasite or virus in culture; type: cell-based, Trypanosoma brucei brucei; settings: for RF (B48): resistance factor vs Lister 427WT
T. brucei Squib 427 = assay: microbe, parasite or virus in culture; type: cell-based, Trypanosoma brucei brucei; settings: for SI (MRC/T.b. brucei): selectivity index
[7] = Trypanosoma brucei, read-out: TbAT1-KO EC50, mean and SEM, n = 3
[8] = Trypanosoma brucei, read-out: TbAT1-KO EC50, single determinations, source data
[9] = read-out: TbAT1-KO EC50, single determinations, source data
[10] = Trypanosoma brucei, mean and SEM, n = 3, read-out: ISMR1 EC50
[11] = Trypanosoma brucei, source data, read-out: ISMR1 EC50, AVG
[12] = Trypanosoma brucei, source data, read-out: ISMR1 EC50, single determinations
[13] = source data, read-out: ISMR1 EC50, single determinations
[14] = single experiments, Cheng–Prusoff from IC50
[15] = Trypanosoma brucei, RHODESIENSE, Alamar blue cell viability assay, mean and SEM, read-out: T. b. rhodesiense EC50
[16] = Trypanosoma brucei, RHODESIENSE, source data, read-out: T. brucei rhodesiense EC50, Average
[17] = Trypanosoma brucei, RHODESIENSE, source data, read-out: T. brucei rhodesiense EC50, single measurements
[18] = source data, read-out: T. brucei rhodesiense EC50, single measurements
[19] = source data, read-out: P1 transporter Ki, AVG
[20] = Trypanosoma brucei, source data, read-out: s427 EC50, AVG
[21] = Trypanosoma brucei, source data, read-out: s427 EC50, single determinations
[22] = source data, read-out: s427 EC50, single determinations
[23] = Trypanosoma brucei, mean and SEM, n = 3, read-out: B48 EC50
[24] = Trypanosoma brucei, Alamar blue cell viability assay, mean and SEM, read-out: T. b. brucei EC50
[25] = Trypanosoma brucei, read-out: TbAT1-KO EC50, AVG, source data
[26] = inhibition of [3H]adenosine uptake, mean ± SEM, n = 3
[27] = inhibition of [3H]adenosine uptake, mean ± SEM, n = 3, read-out: P1 transporter Ki
[28] = Trypanosoma brucei, mean and SEM, n = 3, read-out: Lister 427 EC50
[29] = Trypanosoma brucei, source data, read-out: T. brucei brucei EC50, Average

SMILES	EC50 [1, 7] [nM]	EC50 [1, 8] [nM]	EC50 [1, 9]	EC50 [2, 10] [nM]	RF (ISMR1) [2]	P2 transporter ΔG^0 (P2 transporter (TbAT1)) [kcal/mol]	IC50 (P2 transporter (TbAT1))	Ki (P2 transporter (TbAT1); AVG, source data) [nM]	Ki (P2 transporter (TbAT1); [14])	P2 transporter δ(ΔG^0) (P2 transporter (TbAT1)) [kcal/mol]	EC50 [3, 15] [nM]	EC50 [3, 16] [nM]	SI (MRC/T.b. rhodesiense) [3]	EC50 [3, 18] [nM]	cell morphology [4]	Ki (P1 transporter; [19]) [nM]	EC50 [5, 20] [nM]	EC50 [6, 23] [nM]	EC50 (T. brucei Squib 427; [24]) [nM]	SI (MRC/T.b. brucei) (T. brucei Squib 427)	further results
Nc1ncnc2c1c(Br)cn2[C@@H]1O[C@H](CO)[C@@H](O)[C@H]1O [Compound 8, 7-bromotubercidin]	825 ± 17.3	820	858 nM and 798 nM	1530 ± 157	4.85**	-7.77	2520 nM and 3860 nM and 4390 nM	3020	2110 nM and 3240 nM and 3690 nM	0.789	120 ± 20	120	107	136	clear aberrant morphology	7100	315	448 ± 196	1200 ± 300	10	RF (TbAT1-KO) [1]: 2.62***; EC50 [2, 11]: 1530 nM; EC50 [2, 12]: 1390 nM; EC50 [2, 13]: 1100 nM and 2070 nM and 1520 nM; EC50 [3, 17]: 106 nM; EC50 ([5]; Trypanosoma brucei, read-out: Lister 427 EC50, mean and SEM, n = 3): 320 ± 270 nM; EC50 [5, 21]: 364 nM; EC50 [5, 22]: 309 nM and 273 nM; RF (B48) [6]: 1.42
Nc1ncnc2c1ccn2[C@@H]1O[C@H](CO)C[C@H]1O [Compound 9, 3’-deoxytubercidin]	375 ± 12	370	397 nM and 357 nM	32.4 ± 3.8	0.97	-9.3	133 nM and 281 nM and 171 nM and 85 nM	147	111 nM and 236 nM and 160 nM and 80 nM	-0.741	0.52 ± 0.04	0.521	>123,077	0.557	clear aberrant morphology	108000	33.3	368 ± 13	48 ± 9	>1333	EC50 [1, 25]: 374 nM; EC50 [2, 12]: 39.2 nM; EC50 [2, 13]: 32 nM and 26 nM; P2 Ki, fold lower than the Km value for adenosine (P2 transporter (TbAT1)): roughly 3 fold; energy advantage at P2 versus adenosine (P2 transporter (TbAT1)): roughly 3 kJ mol^−1; Ki (P2 transporter (TbAT1); [26]): 149 ± 30 nM; EC50 [3, 17]: 0.484 nM; Ki (P1 transporter; [27]): 99900 ± 21700 nM; EC50 [5, 28]: 33 ± 1 nM; EC50 [5, 21]: 32 nM; EC50 [5, 22]: 35.5 nM and 32.4 nM; EC50 ([6]; Trypanosoma brucei, source data, read-out: B48 EC50, single determinations): 378 nM; EC50 ([6]; source data, read-out: B48 EC50, single determinations): 383 nM and 343 nM; EC50 (T. brucei Squib 427; [29]): 47.7 nM; EC50 (T. brucei Squib 427; Trypanosoma brucei, source data, read-out: T. brucei brucei EC50, single measurements): 39.9 nM; EC50 (T. brucei Squib 427; source data, read-out: T. brucei brucei EC50, single measurements): 65.2 nM and 38 nM
Nc1ncnc2c1c(Br)cn2[C@@H]1O[C@H](CO)C[C@H]1O [Compound 10, 3’-deoxy-7-Br-tubercidin]	2.1 ± 0.25		1.94 nM	1.1 ± 0.2	0.63	-8.58	620 nM and 790 nM and 250 nM	500	520 nM and 740 nM and 240 nM	-0.024	0.4 ± 0.09	0.398	37,500	0.5	clear aberrant morphology	10100	1.76	1.3 ± 0.3	1.3 ± 0.3	11,462	EC50 [1, 25]: 2.12 nM; RF (TbAT1-KO) [1]: 1.2; EC50 [2, 11]: 1.11 nM; Ki (P2 transporter (TbAT1); [26]): 502 ± 140 nM; fold improvement of affinity for P1 (P1 transporter; 10 versus 9 (bromine at 7-position)): 10 fold; Ki (P1 transporter; Cheng–Prusoff from IC50, read-out: P1 transporter Ki, single experiments): 13400 nM and 8500 nM and 8400 nM; Ki (P1 transporter; [27]): 9470 ± 1400 nM; EC50 [5, 28]: 1.8 ± 0.3 nM; EC50 ([6]; Trypanosoma brucei, source data, read-out: B48 EC50, AVG): 1.32 nM; RF (B48) [6]: 0.75; EC50 (T. brucei Squib 427; [29]): 1.29 nM
